# Source: US20260325667A1, “TISSUE FACTOR ANTIBODY-DRUG CONJUGATES AND USES THEREOF” (priority 2022, published 2026)
# Read-outs that look alike come from different tables or passages of the source.
# What was measured:
# A431 [1] = assay: In vitro cytotoxicity (CellTiter Glo, 5 days), A431; assay type: cell-based; settings: controls (FITC-ADC 8 DAR 6.36; FITC-ADC 4 DAR 3.39; free belotecan)
# Method: (§1) Various cancer cell lines were plated in 96-well plates (Costar 3610) at a density of 1.5×10^3 cells/well in 100 μL of growth media. The next day, cells were treated with […] of test compounds serially-diluted in media. After incubation at 37° C. with […] for 5 days, viability was measured using the Promega CellTiter Glo® reagent according to the manufacturer's recommendations. GI50 curves were calculated in GraphPad Prism normalized to the payload concentration.
# A431 [2] = assay: ATP release from treated tumor cells (RealTimeGlo); assay type: cell-based; settings: TF+ tumor cell line, e.g.
# Method: (§2) Tumor cell treatment: Tumor cells (such as A431 or SKOV-3) were trypsinized by washing with PBS, then 3 mL of TrypLE express was added to each T75 flask and incubated for 3-5 minutes at 37° C. DMEM containing 10% FBS (Gibco) was added to each flask to gently wash cells. Cells were then transferred to a conical tube and centrifuged at 1000RPM for 5 minutes and resuspended in fresh medium. Cells were counted and the cell concentration was adjusted to 10,000 cells per 80 μL. Cells were plated at 80 μL per well and incubated at 37° C., 5% CO2 for 5 hours to allow cells to adhere to the plate surface. 5× dilutions of treatment compounds were made in medium. 20 µL of treatment were added to each well and mixed gently and incubated at 37° C., 5% CO2. Belotecan, MMAE, and a benchmark ADC (also referred to herein as BM ADC, CAS 1418731-10-8 and INN 10148) were also tested in parallel and served as additional controls.
# (§3) ICD molecule, such as ATP and HMGB1, readouts were performed as follows. For ATP release measurement, Promega RealTimeGlo extracellular ATP assay kit (Promega, Cat #GA5010) was used according to the manufacturer's instructions. […] ATP release was measured beginning 24 hours after treatment with readings every 10 minutes on a Spectramax i3× with temperature control at 37° C. […] HMGB1 release was measured at 48- and 72-hours post-treatment.
# A431 [3] = assay: HMGB1 release from treated tumor cells (Lumit); assay type: cell-based; settings: TF+ tumor cell line, e.g.
# Method: as §2, §3
# BxPC-3 = assay: In vitro cytotoxicity (CellTiter Glo, 5 days), BxPC-3; assay type: cell-based; settings: controls (FITC-ADC 8 DAR 6.36; FITC-ADC 4 DAR 3.39; free belotecan), FITC-ADC 4 value marked *: likely not accurate due to curve shape
# Method: as §1
# [4] = NHP payload (belotecan) concentration in plasma; assay type: in vivo, cynomolgus monkeys; settings: cynomolgus, ADC dosed q3wX2
# Method: To assess toxicity of the TF-ADCs, female cynomolgus (“cyno”) monkeys (n=2 per group) were treated via IV bolus with test articles at the doses indicated in the table below on days 1 and 22 (q3wX2). All monkeys that survived until day 43 of the study underwent euthanasia for necropsy and anatomic pathology evaluation. Clinical observations, ECG, eye exams, clinical and anatomic pathology, and TK analysis were performed.
# Further, payload concentrations in plasma of cyno treated with various dosages of TF-ADC 6-4 and TF-ADC 6-8 were evaluated and the data is shown in FIGS. 14A and 14B. […] The plasma level of belotecan was low relative to ADCs and total antibody with a molar ratio (AUC0-21d) ranging from 169 to 519 for TF-ADC 6-4 and 130 to 156 for TF-ADC 6-8. TF-ADC 6-4 had approximately 2-fold higher belotecan compared to TF-ADC 6-8 for the same dose level. […] Belotecan's apparent half-life ranged between 3 to 6 days (Formation rate-limited).
# HPAF-II = assay: In vitro cytotoxicity (CellTiter Glo, 5 days), HPAF-II; assay type: cell-based; settings: controls (FITC-ADC 8 DAR 6.36; FITC-ADC 4 DAR 3.39; free belotecan)
# Method: as §1
# [5] = read-out: IC50 - drug concentration
# [6] = read-out: IC50 - mAb concentration
smiles,measurement,setting,value
CC[C@@]1(O)C(=O)OCc2c1cc1n(c2=O)Cc2c-1nc1ccccc1c2CCNC(C)C [belotecan],IC50,"A431 [1]; Homo sapiens, A-431, 120 h, FITC-ADC 4 value marked *: likely not accurate due to curve shape, read-out: IC50 - mAb concentration",2.36 nM
same,IC50,"A431 [1]; Homo sapiens, A-431, 120 h, read-out: IC50 - drug concentration",2.36 nM
same,IC50,"A431 [1]; FITC-ADC 4 value marked *: likely not accurate due to curve shape, read-out: IC50 - mAb concentration",2.62 nM
same,IC50,A431 [1]; [5],2.62 nM
same,ATP release,A431 [2],induced the release
same,HMGB1 release,A431 [3],induced the release
same,IC50,"BxPC-3; Homo sapiens, BXPC-3, 120 h, read-out: IC50 - drug concentration",2.62 nM
same,IC50,"BxPC-3; Homo sapiens, BXPC-3, 120 h, read-out: IC50 - mAb concentration",2.62 nM
same,IC50,BxPC-3; [5],2.56 nM
same,IC50,BxPC-3; [6],2.56 nM
same,accumulation of payload,[4],Minimal accumulation of payload was observed
same,IC50,"HPAF-II; Homo sapiens, 120 h, read-out: IC50 - drug concentration",3.04 nM
same,IC50,"HPAF-II; Homo sapiens, 120 h, read-out: IC50 - mAb concentration",3.04 nM
same,IC50,HPAF-II; [5],2.45 nM
same,IC50,HPAF-II; [6],2.45 nM
